Literature values as cited in patent publication US20110287109A1 (MAX INTERNATIONAL, LLC, priority 2010, published 2011).

Columns and labels:
[1] = test system: irradiation-induced bowel injury; details: mice, 1 g/kg
[2] = test system: mice exposed to cyclophosphamide; details: 8 mmol/kg
glutathione levels = details: mice, 8 mmol/kg i.p.
[3] = test system: acetaminophen hepatic and renal toxicity; details: mice, 2 g/kg
[4] = administered directly to humans
exercise capacity = details: healthy humans, orally, 8-10 g per day by an adult
ATP levels = details: dogs subjected to ischemia (heart attack model), about 3 g/day for at least 5 days

Row | SMILES | protection against irradiation-induced bowel injury [1] | delivery of protective amounts of cysteine [2] | increase of glutathione level in heart (glutathione levels; heart) | increase of glutathione level in muscle tissue (glutathione levels; muscle tissue) | protection against acetaminophen hepatic and renal toxicity [3] | toxicity over wide dosage ranges [4] | exercise capacity (exercise capacity) | ATP levels (ATP levels)
1 | O=C(O)[C@@H]1CSC(C(O)C(O)C(O)CO)N1 (stereo partly drawn) [RibCys, 2(R,S)-D-ribo-(1′,2′,3′,4′-tetrahydroxybutyl)thiazolidine-4(R)-carboxylic acid] | protect mice against irradiation-induced bowel injury | deliver effective protective amounts of cysteine | 1.5 × | 2.5 × | protect mice against acetaminophen hepatic and renal toxicity |  |  | 
2 | O=C[C@H](O)[C@H](O)[C@H](O)CO [ribose] |  |  |  |  |  | essentially non-toxic | increase exercise capacity | effectively restored and maintained ATP levels
